Values quoted from earlier work as cited in patent US7572808B2, “Triazolopyridine cannabinoid receptor 1 antagonists” (Bristol-Myers Squibb Company, priority 2005, dated 2009).
Where two headings read alike, the source gives them in different places.

Assays:
[1] = chronic administration for two weeks
[2] = human subjects, 16 week trial period, Phase IIb

| SMILES | body weight [1] | body weight [2] |
| --- | --- | --- |
| Cc1c(C(=O)NN2CCCCC2)nn(-c2ccc(Cl)cc2Cl)c1-c1ccc(I)cc1 [AM-251] | substantial body weight reduction |  |
| Cc1c(C(=O)NN2CCCCC2)nn(-c2ccc(Cl)cc2Cl)c1-c1ccc(Cl)cc1 [SR-141716] |  | dose-dependently reduced body weight |
